Converted amounts (≈) assume the structure as drawn. Like-named read-outs stand apart in the source and are kept apart here. Marks after values point to notes of the source that are not given here.
Assays:
Mtb H37Ra ATTC 25177 = test: MIC determination, serial dilution in Middlebrook 7H9, and FICI; type: cell-based, Mycobacterium tuberculosis
H37RV ATTC 25618 = test: as above; type: cell-based, Mycobacterium tuberculosis
[1] = system: clinical isolate 192 (susceptible); test: microbe, parasite or virus in culture; type: cell-based, Mycobacterium tuberculosis
clinical isolate 253/16 = test: microbe, parasite or virus in culture; type: cell-based, Mycobacterium tuberculosis
GMK cells = test: Cytotoxicity, MTT assay; type: cell-based, African green monkey; conditions: GMK cells, 48 h exposure, MTT; highest tested concentration 500 μg/mL
Procedure: (§1) The cytotoxicity experiment was performed using African green monkey kidney epithelial cells (GMK) obtained from BIOMED-Lublin S.A. (Lublin, Poland). The cells were cultured in EMEM medium (ATCC-LGC Standards, Cumberland, ME, USA) supplemented with 10% foetal bovine serum (FBS, Pan-Biotech, Aidenbach, Germany), penicillin (100 U/mL), and streptomycin (100 μg/mL) (Sigma-Aldrich, St. Louis, MO, USA). The GMK cells were maintained at 37 °C in a humidified atmosphere of 5% CO2 and 95% air. The GMK cells were seeded in 96-multiwell plates in 100 μL of the complete EMEM medium at a concentration of 3 × 10^5 cells/mL (3 × 10^4 cells/well) and the plates were maintained at 37 °C for 24 h. Then, the culture medium was replaced with 100 µL of different concentrations of tested agents and 2 reference anti-mycobacterial drugs—rifampicin and isoniazid. The stock solutions of all compounds were prepared in DMSO (Sigma-Aldrich, St. Louis, MO, USA), thus the highest solvent concentrations (1% and 0.5% DMSO) used in the experiment were tested in parallel to exclude potential toxicity associated with the use of DMSO. Different concentrations of the tested agents were obtained by six serial 2-fold dilutions using culture medium (the highest tested concentration was equal 500 µg/mL). GMK cells maintained in culture medium without anti-mycobacterial agent served as a negative control of cytotoxicity. The cells were exposed to tested compounds and reference drugs for 48 h, then cytotoxicity test was performed using MTT assay (Sigma-Aldrich, St. Louis, MO, USA) as it was described previously. The cytotoxicity test was repeated in three separate experiments (n = 3) and each experiment was carried out in quadruplicate. The IC50 values (concentration reducing viability of GMK cells by 50%) were determined using GraphPad Prism 5, Version 5.03 software (GraphPad Software, Inc., La Jolla, CA, USA).

Cytotoxicity, MTT assay = type: cell-based, African green monkey; conditions: African green monkey; for IC50 at 48 h: GMK cells, 48 h exposure, MTT, highest tested concentration 500 μg/mL
Procedure: as §1

[2] = system: reference virulent strain H37Rv; set-up: method as in PMID 26400221; conditions: Alamar Blue technique, 8 days of incubation ref 36; cited from earlier work
Vero cell line = conditions: cited from earlier work
[3] = compounds tested separately, H37Rv
[4] = compounds tested separately, 192
[5] = compounds tested separately, 253/16
[6] = Mycobacterium tuberculosis, compounds tested separately, read-out: MIC
[7] = Mycobacterium tuberculosis, compounds tested separately, H37Rv, read-out: MIC
[8] = Mycobacterium tuberculosis, H37RV
[9] = GMK cells (African green monkey kidney epithelial cells)
[10] = Mycobacterium tuberculosis, subinhibitory concentration of the terpene, read-out: MIC for EMB in a Presence of Terpenes
[11] = Mycobacterium tuberculosis, subinhibitory concentration of the terpene, read-out: MIC for INH in a Presence of Terpenes
[12] = Mycobacterium tuberculosis, subinhibitory concentration of the terpene, read-out: MIC for RMP in a Presence of Terpenes
[13] = Mycobacterium tuberculosis, H37RV, read-out: MIC for INH in a Presence of Terpenes
[14] = Mycobacterium tuberculosis, H37Rv, subinhibitory concentration of the terpene, read-out: MIC for EMB in a Presence of Terpenes
[15] = Mycobacterium tuberculosis, H37Rv, subinhibitory concentration of the terpene, read-out: MIC for RMP in a Presence of Terpenes
[16] = Mycobacterium tuberculosis, read-out: MIC for EMB in a Presence of Terpenes
[17] = Mycobacterium tuberculosis, read-out: MIC for INH in a Presence of Terpenes
[18] = Mycobacterium tuberculosis, read-out: MIC for RMP in a Presence of Terpenes

With `C=C(C)[C@H]1CC=C(C)CC1` [(R)-limonene] the MIC (Mtb H37Ra ATTC 25177; compounds tested separately) was 32 µg/mL, the MIC (H37RV ATTC 25618; [3]) was 128 µg/mL and the MIC [1, 4] was 128 µg/mL (≈ 940 µM). The MIC (clinical isolate 253/16; [5]) was 256 µg/mL (≈ 1880 µM) and the “IC50 (cytotoxicity)” value (GMK cells) was greater than 500 µg/mL.
In the case of `CC[C@@H](CO)NCCN[C@@H](CC)CO` [EMB, ethambutol, reference compound], the MIC (Mtb H37Ra ATTC 25177; [6]) is reported as 4 µg/mL, the MIC (H37RV ATTC 25618; [7]) is reported as 0.25 µg/mL and the MIC ([1]; Mycobacterium tuberculosis) is reported as less than 0.125 µg/mL. It also gave an MIC (clinical isolate 253/16; Mycobacterium tuberculosis) of 64 µg/mL (≈ 313 µM).
`NNC(=O)c1ccncc1` [INH, isoniazid, reference compound] gave an MIC (Mtb H37Ra ATTC 25177; [6]) of 0.125 µg/mL, an MIC (H37RV ATTC 25618; [8]) of less than 0.125 µg/mL and an MIC ([1]; Mycobacterium tuberculosis) of less than 0.125 µg/mL. For the same molecule, the MIC (clinical isolate 253/16; Mycobacterium tuberculosis) was 8 µg/mL (≈ 58.3 µM) and the IC50 at 48 h (Cytotoxicity, MTT assay; [9]) was greater than 500 µg/mL.
In the case of `CO[C@H]1/C=C/O[C@@]2(C)Oc3c(C)c(O)c4c(O)c(c(/C=N/N5CCN(C)CC5)c(O)c4c3C2=O)NC(=O)/C(C)=C\C=C\[C@H](C)[C@H](O)[C@@H](C)[C@@H](O)[C@@H](C)[C@H](OC(C)=O)[C@@H]1C` [RMP, rifampicin, reference compound], the MIC (Mtb H37Ra ATTC 25177; [6]) is reported as 1 µg/mL, the MIC (H37RV ATTC 25618; [7]) is reported as 0.25 µg/mL and the MIC ([1]; Mycobacterium tuberculosis) is reported as less than 0.125 µg/mL. It also gave an MIC (clinical isolate 253/16; Mycobacterium tuberculosis) of 4 µg/mL (≈ 4.86 µM) and an IC50 at 48 h (Cytotoxicity, MTT assay; [9]) of 142 µg/mL (≈ 172 µM).
For `CC(C)=CCC[C@](C)(O)C1CC=C(C)CC1` (stereo partly drawn) [bisabolol], the MIC (Mtb H37Ra ATTC 25177; compounds tested separately) was 64 µg/mL, the MIC (H37RV ATTC 25618; [3]) was 16 µg/mL and the MIC [1, 4] was 16 µg/mL (≈ 72 µM). For the same molecule, the MIC (clinical isolate 253/16; [5]) was 128 µg/mL (≈ 576 µM) and the “IC50 (cytotoxicity)” value (GMK cells) was 71.12 µg/mL (≈ 320 µM).
For `Cc1ccc(C(C)C)cc1O` [carvacrol], the MIC [2] is given as 2.02 µg/mL (≈ 13.4 µM).
For `C=CC(=C)CCC=C(C)C` [myrcene], the MIC (Mtb H37Ra ATTC 25177; [6]) was 128 µg/mL, the MIC (Mtb H37Ra ATTC 25177; [10]) was 0.5 µg/mL and the MIC (Mtb H37Ra ATTC 25177; [11]) was 0.0625 µg/mL. The MIC (Mtb H37Ra ATTC 25177; [12]) was 0.125 µg/mL, the MIC (H37RV ATTC 25618; [8]) was 256 µg/mL and the MIC (H37RV ATTC 25618; [13]) was less than 0.125 µg/mL. The MIC (H37RV ATTC 25618; [14]) was 0.25 µg/mL, the MIC (H37RV ATTC 25618; [15]) was 0.25 µg/mL and the MIC ([1]; Mycobacterium tuberculosis) was 256 µg/mL (≈ 1880 µM). For the same molecule, the MIC [1, 16] was less than 0.125 µg/mL, the MIC [1, 17] was less than 0.125 µg/mL and the MIC [1, 18] was less than 0.125 µg/mL. The MIC (clinical isolate 253/16; Mycobacterium tuberculosis) was greater than 512 µg/mL, the MIC (clinical isolate 253/16; [16]) was 64 µg/mL and the MIC (clinical isolate 253/16; [17]) was 8 µg/mL. For the same molecule, the MIC (clinical isolate 253/16; [18]) was 4 µg/mL, the “IC50 (cytotoxicity)” value (Vero cell line; determined on Vero cell Line ref 31) was 200 * μg/mL and the cytotoxic activity (Vero cell line; up to a concentration of 200 μg/mL, Vero cell line ref 33) was “did not present cytotoxic activity”.
For `Cc1ccc(C(C)C)cc1` [p-cymene], the MIC [2] is given as 91 µg/mL (≈ 678 µM).
Molecule `C=C1CCC2(C(C)C)CC12` (stereo not drawn) [sabinene] has an MIC (Mtb H37Ra ATTC 25177; [6]) of 64 µg/mL, an MIC (Mtb H37Ra ATTC 25177; [10]) of 0.5 µg/mL and an MIC (Mtb H37Ra ATTC 25177; [11]) of 0.0625 µg/mL. The MIC (Mtb H37Ra ATTC 25177; [12]) was 0.0625 µg/mL, the MIC (H37RV ATTC 25618; [8]) was 128 µg/mL and the MIC (H37RV ATTC 25618; [13]) was less than 0.125 µg/mL. It also gave an MIC (H37RV ATTC 25618; [14]) of 0.25 µg/mL, an MIC (H37RV ATTC 25618; [15]) of 0.25 µg/mL and an MIC ([1]; Mycobacterium tuberculosis) of 128 µg/mL (≈ 940 µM). The MIC [1, 16] was less than 0.125 µg/mL, the MIC [1, 17] was less than 0.125 µg/mL and the MIC [1, 18] was less than 0.125 µg/mL. It also gave an MIC (clinical isolate 253/16; Mycobacterium tuberculosis) of 256 µg/mL (≈ 1880 µM), an MIC (clinical isolate 253/16; [16]) of 64 µg/mL and an MIC (clinical isolate 253/16; [17]) of 8 µg/mL. It also gave an MIC (clinical isolate 253/16; [18]) of 4 µg/mL and an IC50 at 48 h (Cytotoxicity, MTT assay) of 348 µg/mL (≈ 2550 µM).
In the case of `Cc1ccc(C(C)C)c(O)c1` [thymol], the MIC [2] is given as 0.78 µg/mL (≈ 5.19 µM).
`CC1=CCC2CC1C2(C)C` (stereo not drawn) [α-pinene] gave an MIC (Mtb H37Ra ATTC 25177; [6]) of 128 µg/mL, an MIC (Mtb H37Ra ATTC 25177; [10]) of 1 µg/mL and an MIC (Mtb H37Ra ATTC 25177; [11]) of 0.125 µg/mL. For the same molecule, the MIC (Mtb H37Ra ATTC 25177; [12]) was 0.0625 µg/mL, the MIC (H37RV ATTC 25618; [8]) was 128 µg/mL and the MIC (H37RV ATTC 25618; Mycobacterium tuberculosis, H37RV, read-out: MIC for EMB in a Presence of Terpenes) was 0.125 µg/mL. It also gave an MIC (H37RV ATTC 25618; [13]) of less than 0.125 µg/mL, an MIC (H37RV ATTC 25618; [15]) of 0.25 µg/mL and an MIC ([1]; Mycobacterium tuberculosis) of 128 µg/mL (≈ 940 µM). It also gave an MIC [1, 16] of less than 0.125 µg/mL, an MIC [1, 17] of less than 0.125 µg/mL and an MIC [1, 18] of less than 0.125 µg/mL. For the same molecule, the MIC (clinical isolate 253/16; Mycobacterium tuberculosis) was 256 µg/mL (≈ 1880 µM), the MIC (clinical isolate 253/16; [16]) was 32 µg/mL and the MIC (clinical isolate 253/16; [17]) was 8 µg/mL. For the same molecule, the MIC (clinical isolate 253/16; [18]) was 4 µg/mL, the IC50 at 48 h (Cytotoxicity, MTT assay; [9]) was greater than 500 µg/mL and the viability at 48 h, 500 µg/mL (Cytotoxicity, MTT assay; GMK cells (African green monkey kidney epithelial cells), exposure to the highest tested concentration (500 μg/mL)) was roughly 90%.
In the case of `C=C1CC/C=C(\C)CC[C@@H]2[C@@H]1CC2(C)C` [β-caryophyllene], the MIC [2] is given as 100 µg/mL (≈ 489 µM).
For `C=C[C@]1(C)CC[C@@H](C(=C)C)C[C@H]1C(=C)C` [β-elemene], the MIC (Mtb H37Ra ATTC 25177; compounds tested separately) was 32 µg/mL, the MIC (H37RV ATTC 25618; [3]) was 256 µg/mL and the MIC [1, 4] was 256 µg/mL (≈ 1250 µM). For the same molecule, the MIC (clinical isolate 253/16; [5]) was greater than 512 µg/mL.
Work on (S)-limonene yielded an MIC (Mtb H37Ra ATTC 25177; compounds tested separately) of 32 µg/mL, an MIC (H37RV ATTC 25618; [3]) of 256 µg/mL and an MIC [1, 4] of 256 µg/mL. The MIC (clinical isolate 253/16; [5]) was greater than 512 µg/mL and the “IC50 (cytotoxicity)” value (GMK cells) was greater than 500 µg/mL.
